{
  "source": "paper PMC9374667",
  "about": "(Communications Biology, 2022)",
  "key": {"[1]": {"settings": "cited from earlier work"}, "IKKε [2]": {"biological_target": "T1, IKKε (Mus musculus, UniProt Q9R0T8)", "T1 sequence (Q9R0T8 1-717)": "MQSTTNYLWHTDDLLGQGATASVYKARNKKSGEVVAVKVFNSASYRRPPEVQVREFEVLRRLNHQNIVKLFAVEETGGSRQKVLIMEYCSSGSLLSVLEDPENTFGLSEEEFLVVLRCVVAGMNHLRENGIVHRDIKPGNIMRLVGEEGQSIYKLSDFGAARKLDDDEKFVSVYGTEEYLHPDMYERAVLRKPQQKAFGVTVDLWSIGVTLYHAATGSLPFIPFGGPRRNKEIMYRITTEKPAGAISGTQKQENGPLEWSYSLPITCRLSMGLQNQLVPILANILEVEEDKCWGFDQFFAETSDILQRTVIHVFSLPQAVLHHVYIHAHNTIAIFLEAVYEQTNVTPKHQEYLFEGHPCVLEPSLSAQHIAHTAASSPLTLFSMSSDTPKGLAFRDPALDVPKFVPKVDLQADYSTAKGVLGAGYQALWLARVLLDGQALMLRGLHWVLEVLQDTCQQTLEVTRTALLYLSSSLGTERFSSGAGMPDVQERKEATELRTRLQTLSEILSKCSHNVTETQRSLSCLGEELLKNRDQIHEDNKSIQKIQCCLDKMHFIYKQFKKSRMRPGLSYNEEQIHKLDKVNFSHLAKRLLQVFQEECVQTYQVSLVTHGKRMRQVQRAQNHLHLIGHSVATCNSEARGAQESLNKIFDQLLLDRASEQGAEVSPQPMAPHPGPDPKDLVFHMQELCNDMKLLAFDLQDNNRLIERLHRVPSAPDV", "assay": "3T3-L1 adipocytes transfected with IKKε plasmid (western blotting, cAMP, glycerol, ISO)", "assay_type": "cell-based, Murine", "design": "endogenous in cells; host or cells: differentiated 3T3-L1 adipocytes; IKKε (western blotting, Figure 8h) / UCP1 (western blotting, Figure 8i) / UCP1 (western blotting, Figure 8j): scale not given here; cAMP levels (Figure 8k) / Glycerol release (Figure 8l): unit not given here", "experimental": "(§1) Small interference RNA transfection (siRNA) was performed using 4 μM TBK1 siRNA (siTBK1) or 4 μM […]ε) or corresponding NC siRNA (siNC). The epididymal adipose tissue was dissected, the fresh adipose tissue was weighed and rapidly rinsed with PBS. The adipose tissue was cut and incubated with isoproterenol (10 μM) for 2 h, and homogenized in a cold cleavage buffer to prepare the adipose tissue homogenate. Then the homogenate was centrifuged at 12,000 × g at 4 °C for 15 min, and the supernatant was collected. […] Then the cells were lysed in a petri dish, scraped off, and centrifuged at 12,000 × g at 4 °C for 15 min before the supernatant was collected. […] And concentrations were further standardized according to protein concentration. The adipose tissue or 3T3-L1 adipocytes were homogenized by ultrasound in an ice-cold RIPA lysis buffer containing 1% PMSF and centrifuged at 12,000 × g at 4°C for 15 min to collect the supernatant. The BCA protein assay kit (Beyotime, Shanghai, China) was used to detect the total protein concentration. Proteins (20-30 μg) of the sample were separated by 10% SDS-PAGE gel and transferred onto polyvinylidene difluoride (PVDF) membranes. Then the PVDF membranes were blocked in 5% skim milk powder in TBS containing 1% Tween-20 (TBST) for 2 h at room temperature and washed with TBST for 3 times. […] After washing, the membranes were incubated with horseradish peroxidase-conjugated secondary antibodies (in 5% skim milk powder) for 1 h at room temperature. Finally, the membranes were treated with enhanced chemiluminescence agents (Tanon, Shanghai, China) and the signals were monitored using the Tanon 5200 multi chemiluminescent imaging system (Tanon, Shanghai, China)."}, "IKKε [3]": {"biological_target": "T1, IKKε", "assay": "IKKε-knockdown 3T3-L1 adipocytes (siRNA; western blotting, cAMP, glycerol, ISO)", "assay_type": "cell-based, Murine", "design": "endogenous in cells; host or cells: differentiated 3T3-L1 adipocytes", "settings": "for Glycerol (Figure 9l) / UCP1 (western blotting, Figure 9J) / cAMP (Figure 9k): 10μM BJ +", "experimental": "as §1"}, "[4]": {"settings": "3T3-L1 adipocytes transfected with IKKε plasmid, 24 h of BJ treatment"}},
  "note": "Several values for one entry are separate records, joined by “and”; a condition that tells them apart may be missing. Identical values can stand only once. Like-named read-outs stand apart in the source and are kept apart here.",
  "data": [
    {"smiles": "COc1ccc2cc3[n+](cc2c1OC)CCc1cc2c(cc1-3)OCO2", "note": "[BBR, Berberine chloride dihydrate]", "values": [
      {"measurement": "Maximum plasma concentration (Cmax)", "setting": "[1]; acute oral BBR (400 mg) provocation tests", "result": "approximately 0.4 ng/ml"},
      {"measurement": "Share of the oral dose that enters the systemic circulation", "setting": "[1]; human subjects", "result": "less than 5%"},
      {"measurement": "Steady-state concentration in human plasma", "setting": "[1]; oral BBR 300 mg/d for seven days", "result": "approximately 0.3 ng/ml"}
    ]},
    {"smiles": "CC(C)Cc1ccc(C(C)C(=O)[O-])cc1.COc1ccc2cc3[n+](cc2c1OC)CCc1cc2c(cc1-3)OCO2.O.O.O.O", "note": "[BJ, berberine-ibuprofen]", "values": [
      {"measurement": "IKKε (western blotting, Figure 8h)", "setting": "IKKε [2]", "result": "0.3064 and 0.3337 and 0.413"},
      {"measurement": "IKKε (western blotting, Figure 8h)", "setting": "IKKε [2]; 3μg IKKε+10μM BJ", "result": "0.3573 and 0.3516 and 0.3871"},
      {"measurement": "UCP1 (western blotting, Figure 8i)", "setting": "IKKε [2]; 3μg IKKε+10μM BJ", "result": "0.8819 and 0.7296 and 0.665"},
      {"measurement": "UCP1 (western blotting, Figure 8i)", "setting": "IKKε [2]; 10μM BJ", "result": "0.7179 and 0.7672 and 0.7892"},
      {"measurement": "IKKε protein level", "setting": "IKKε [2]; [4]", "result": "significantly decreased"},
      {"measurement": "UCP1 protein level", "setting": "IKKε [2]; [4]", "result": "significantly increased"},
      {"measurement": "Glycerol release (Figure 8l)", "setting": "IKKε [2]; BJ", "result": "86.9484 and 84.4172 and 92.0109"},
      {"measurement": "UCP1 (western blotting, Figure 8j)", "setting": "IKKε [2]; BJ", "result": "0.7729 and 0.7093 and 0.8167"},
      {"measurement": "cAMP levels (Figure 8k)", "setting": "IKKε [2]; BJ", "result": "0.1832 and 0.1783 and 0.1808"},
      {"measurement": "Glycerol release (Figure 8l)", "setting": "IKKε [2]; BJ+IKKε", "result": "68.3861 and 70.0736 and 61.6362"},
      {"measurement": "UCP1 (western blotting, Figure 8j)", "setting": "IKKε [2]; BJ+IKKε", "result": "0.4841 and 0.4628 and 0.4991"},
      {"measurement": "cAMP levels (Figure 8k)", "setting": "IKKε [2]; BJ+IKKε", "result": "0.1738 and 0.178 and 0.1687"},
      {"measurement": "Glycerol release (Figure 8l)", "setting": "IKKε [2]; ISO+BJ", "result": "156.135 and 153.604 and 151.073"},
      {"measurement": "UCP1 (western blotting, Figure 8j)", "setting": "IKKε [2]; ISO+BJ", "result": "0.9653 and 0.8916 and 1.268"},
      {"measurement": "cAMP levels (Figure 8k)", "setting": "IKKε [2]; ISO+BJ", "result": "0.3323 and 0.3162 and 0.3269"},
      {"measurement": "Glycerol release (Figure 8l)", "setting": "IKKε [2]; ISO+BJ+IKKε", "result": "123.229 and 124.917 and 128.292"},
      {"measurement": "UCP1 (western blotting, Figure 8j)", "setting": "IKKε [2]; ISO+BJ+IKKε", "result": "0.6833 and 0.6687 and 0.7939"},
      {"measurement": "cAMP levels (Figure 8k)", "setting": "IKKε [2]; ISO+BJ+IKKε", "result": "0.2266 and 0.2216 and 0.2337"},
      {"measurement": "Inhibition of ISO efficacy (UCP1, glycerol release, cAMP) by IKKε overexpression", "setting": "IKKε [2]; transfected 3T3-L1 adipocytes, 10 µM BJ", "result": "ameliorated"},
      {"measurement": "IKKϵ (western blotting, Figure 9h)", "setting": "IKKε [3]; 10μM BJ", "result": "0.1875 and 0.2278 and 0.214"},
      {"measurement": "UCP1 (western blotting, Figure 9i)", "setting": "IKKε [3]; 10μM BJ", "result": "0.3644 and 0.4778 and 0.4436"},
      {"measurement": "Expression of UCP1", "setting": "IKKε [3]; 3T3-L1 adipocytes treated with BJ alone", "result": "significantly increased"},
      {"measurement": "UCP1 expression", "setting": "IKKε [3]; IKKε-knockdown 3T3-L1 adipocytes treated with BJ, vs IKKε-knockdown", "result": "not significantly altered"},
      {"measurement": "cAMP accumulation, glycerol release, and UCP1 expression", "setting": "IKKε [3]; IKKε-knockdown 3T3-L1 adipocytes, ISO stimulation, BJ vs IKKε-knockdown", "result": "did not significantly increase the above changes"},
      {"measurement": "cAMP accumulation, glycerol release, and UCP1 expression", "setting": "IKKε [3]; ISO-stimulated 3T3-L1 adipocytes, BJ treatment alone", "result": "significantly increased cAMP accumulation, glycerol release, and UCP1 expression"},
      {"measurement": "Glycerol (Figure 9l)", "setting": "IKKε [3]; siIKKϵ +, ISO +", "result": "176.805 µmol/L and 182.076 µmol/L and 176.254 µmol/L"},
      {"measurement": "UCP1 (western blotting, Figure 9J)", "setting": "IKKε [3]; siIKKϵ +, ISO +", "result": "0.785 and 0.7814 and 0.8472"},
      {"measurement": "cAMP (Figure 9k)", "setting": "IKKε [3]; siIKKϵ +, ISO +", "result": "0.4194 pmol/mg protein and 0.4185 pmol/mg protein and 0.3432 pmol/mg protein and 0.371 pmol/mg protein and 0.3866 pmol/mg protein and 0.405 pmol/mg protein"},
      {"measurement": "Glycerol (Figure 9l)", "setting": "IKKε [3]; siIKKϵ +, ISO -", "result": "89.0822 µmol/L and 96.3611 µmol/L and 91.9299 µmol/L"},
      {"measurement": "UCP1 (western blotting, Figure 9J)", "setting": "IKKε [3]; siIKKϵ +, ISO -", "result": "0.6376 and 0.6905 and 0.6507"},
      {"measurement": "cAMP (Figure 9k)", "setting": "IKKε [3]; siIKKϵ +, ISO -", "result": "0.2155 pmol/mg protein and 0.2223 pmol/mg protein and 0.1908 pmol/mg protein and 0.2097 pmol/mg protein and 0.2158 pmol/mg protein and 0.2252 pmol/mg protein"},
      {"measurement": "Glycerol (Figure 9l)", "setting": "IKKε [3]; siIKKϵ -, ISO +", "result": "156.977 µmol/L and 167.166 µmol/L and 170.891 µmol/L"},
      {"measurement": "UCP1 (western blotting, Figure 9J)", "setting": "IKKε [3]; siIKKϵ -, ISO +", "result": "0.6574 and 0.7704 and 0.6754"},
      {"measurement": "cAMP (Figure 9k)", "setting": "IKKε [3]; siIKKϵ -, ISO +", "result": "0.362 pmol/mg protein and 0.3606 pmol/mg protein and 0.3205 pmol/mg protein and 0.3322 pmol/mg protein and 0.3416 pmol/mg protein and 0.3545 pmol/mg protein"},
      {"measurement": "Glycerol (Figure 9l)", "setting": "IKKε [3]; siIKKϵ -, ISO -", "result": "81.5401 µmol/L and 78.1125 µmol/L and 83.122 µmol/L"},
      {"measurement": "UCP1 (western blotting, Figure 9J)", "setting": "IKKε [3]; siIKKϵ -, ISO -", "result": "0.5736 and 0.639 and 0.5661"},
      {"measurement": "cAMP (Figure 9k)", "setting": "IKKε [3]; siIKKϵ -, ISO -", "result": "0.1756 pmol/mg protein and 0.1959 pmol/mg protein and 0.2053 pmol/mg protein and 0.1755 pmol/mg protein and 0.1805 pmol/mg protein and 0.1893 pmol/mg protein"},
      {"measurement": "IKKϵ (western blotting, Figure 9h)", "setting": "IKKε [3]; siIKKϵ+10μM BJ", "result": "0.09311 and 0.1256 and 0.1406"},
      {"measurement": "UCP1 (western blotting, Figure 9i)", "setting": "IKKε [3]; siIKKϵ+10μM BJ", "result": "0.4915 and 0.4988 and 0.5593"}
    ]}
  ]
}
